Here are results for 24 molecules from patent US20220370625A1, “THERAPEUTIC CONJUGATES” (Totus Medicines Inc., priority 2019, published 2022).

The first experiment deals with T1, estrogen receptor (Homo sapiens, UniProt P03372).
T1 construct: expressed in transfected cells; host or cells: HEK293 (Gibco 293-H), transient transfection with FuGENE HD
T1 sequence (P03372 1-595): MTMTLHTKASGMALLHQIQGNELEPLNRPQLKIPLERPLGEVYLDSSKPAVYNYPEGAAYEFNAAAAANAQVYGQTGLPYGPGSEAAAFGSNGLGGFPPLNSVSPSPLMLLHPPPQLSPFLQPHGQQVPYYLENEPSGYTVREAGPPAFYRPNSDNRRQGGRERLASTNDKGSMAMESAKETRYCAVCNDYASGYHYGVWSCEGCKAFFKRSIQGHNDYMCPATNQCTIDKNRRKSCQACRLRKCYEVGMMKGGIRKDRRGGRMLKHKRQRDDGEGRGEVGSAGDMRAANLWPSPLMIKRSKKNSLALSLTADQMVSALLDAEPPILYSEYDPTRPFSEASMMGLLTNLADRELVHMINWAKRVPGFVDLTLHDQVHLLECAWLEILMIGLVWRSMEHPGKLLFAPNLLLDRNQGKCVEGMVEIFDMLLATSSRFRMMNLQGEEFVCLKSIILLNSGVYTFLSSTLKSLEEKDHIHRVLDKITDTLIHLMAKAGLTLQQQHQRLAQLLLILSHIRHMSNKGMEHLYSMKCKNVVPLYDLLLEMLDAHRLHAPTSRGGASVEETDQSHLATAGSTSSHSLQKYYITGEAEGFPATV
Briefly: NanoBRET screening of ARCS (binding assay with washout) in transfected HEK293 cells. Particulars: HEK293 cells transfected with NanoLuc-target fusion, estrogen receptor. As for the experimental part:
Human embryonic kidney 293-H (HEK 293, Gibco 293-H, #11631017) cell lines are maintained in Dulbecco's Modified Eagle Medium, high glucose, pyruvate (DMEM, Gibco, #11995065) supplemented with 10% fetal bovine serum (FBS, Gibco, #10082147) and 1× penicillin-streptomycin (100× solution, Gibco, #15140148) at 37° C. and 5% CO2 in a water-saturated incubator. Cell are trypsinized using 0.05% or 0.25% Trypsin-EDTA solution (Trypsin-EDTA, phenol red, Gibco, #25200056 (0.25%) or #25300054). Opti-MEM media supplemented with 10% fetal bovine serum (Opti-MEM I reduced serum media, no phenol red, Gibco, #11058021) is used for culturing cells overnight for NanoBRET readout experiments.
HEK293 cells are cultivated appropriately prior to assay. The medium from cell flask is removed via aspiration, washed 1× with PBS followed by aspiration, trypsinized, and cells are allowed to dissociate from the flask. Trypsin is neutralized using growth medium and cells are pelleted via centrifugation at 200×g for 5 minutes. The medium is aspirated and the cells are resuspended into a single cell suspension using Opti-MEM I supplemented with 10% FBS. The cell density is adjusted to 2×10^5/mL in Opti-MEM I supplemented with 10% FBS in a sterile, conical tube. The cells are transfected and aliquoted directly in a 96-well plate for the NanoBRET assay the next day, and therefore, the cells are cultured overnight in Opti-MEM. The cells are also transfected in bulk and dispensed into a 96-well plate to allow cells to adhere to the plate overnight, thereby enabling washout studies.
The lipid:DNA complexes are prepared as follows:
A 10 μg/mL solution of DNA is prepared in Opti-MEM without serum. This solution contains the following ratios of carrier DNA and DNA encoding NanoLuc fused to the biological target. Serial dilution steps may be warranted to accurately dilute the NanoLuc fusion DNA. Added, in order, the following reagents to a sterile polystyrene test tube: 1 mL of Opti-MEM without phenol red; 9.0 μg/mL of carrier DNA; 1.0 μg/mL of NanoLuc fusion DNA (for some targets, the amount is less). The reagents are mixed thoroughly. 30 μL of FuGENE HD is added into each mL of DNA mixture to form lipid:DNA complex. […] It is mixed by pipetting up and down 5-10 times and incubated at room temperature for 20 minutes to allow complexes to form. 1 part (e.g. 1 mL) of lipid:DNA complex is mixed with 20 parts (e.g. 20 mL) of HEK293 cells in suspension at 2×10^5/mL and mixed gently by pipetting up and down 5 times in a sterile, conical tube. Larger or smaller bulk transfections are scaled accordingly, using this ratio. 100 μL cells+lipid:DNA complex is dispensed into a sterile, tissue-culture treated 96-well plate (20,000 cells/well), and incubated at least 16 hours to allow expression. The cells are incubated in a 37° C.+5% CO2 incubator for >16 hrs. A serially diluted inhibitor or test compound is prepared at 100× final concentration in 100% DMSO. The serially diluted inhibitor stock is prepared in PCR plates. 1 μL per well of 100× serially diluted inhibitor/test compound is added to the cells in 96-well plates that have been transiently transfected overnight and mixed by tapping the plate by hand. The plate is incubated at 37° C.+5% CO2 incubator overnight. A 1× solution of substrate mix (500× stock) and appropriate concentration of tracer is prepared in Opti-Mem. The cells are washed by setting a plate washer to the 96 well plate 5× in PBS pH 7.4 by adding 200 μL PBS each time. The cells are incubated at 37° C. for 2 hours. 100 μL of the 1× Substrate-Tracer solution is added and the 96 well plate is gently tapped to mix. The plate on plate reader is read every hour for the next 6 hours.
The binding assays of some ARCS are shown below. Compound 2-314 formed a covalent bond with an estrogen receptor of <20%. Compounds 2-302 and 2-303 formed a covalent bond with an estrogen receptor from about 50% to 70%. […]
Background: In BRET a luciferase serves as donor, and the signal depends on an acceptor being close.
As to `CC1Cc2c([nH]c3ccccc23)C(c2c(F)cc(OCCNCC=CC(=O)N(C)C)nc2F)N1CC(C)(C)F` (centres unmarked) [Compound 2-102], the “Binding Potential (Percent inhibition)” value was “+++ (+++ 80-90%)”.

For the molecule `CC1Cc2c([nH]c3ccccc23)C(c2c(F)cc(OCCNCC=CC(=O)N(C)C)cc2F)N1CC(C)(C)F` (centres unmarked) [Compound 2-103], the “Binding Potential (Percent inhibition)” value is on record as “++++ (++++ >90%)”.

`C[C@@H]1Cc2c([nH]c3ccccc23)[C@@H](c2c(F)cc(OCCNC/C=C/C(=O)N(C)C)cc2F)N1CC(C)(F)CO` (some centres unmarked) [Compound 2-106]: the “Binding Potential (Percent inhibition)” value was “++++ (++++ >90%)”.

For the molecule `CC1Cc2c([nH]c3ccccc23)C(c2ccc(NCCNCC=CC(=O)N(C)C)nc2)N1CC(C)(C)F` (centres unmarked) [Compound 2-107], the “Binding Potential (Percent inhibition)” value is “+++ (+++ 80-90%)”.

Turning to `CC1Cc2c([nH]c3ccccc23)C(c2c(F)cc(NCCNCC=CC(=O)N(C)C)nc2F)N1CC(C)(C)F` (centres unmarked) [Compound 2-108], the “Binding Potential (Percent inhibition)” value is reported as “+++ (+++ 80-90%)”.

`CC1Cc2c([nH]c3ccccc23)C(c2c(F)cc(NCCNCC=CC(=O)N(C)C)cc2F)N1CC(C)(C)F` (centres unmarked) [Compound 2-109]: the “Binding Potential (Percent inhibition)” value is recorded as “+++ (+++ 80-90%)”.

Take `CC1Cc2c([nH]c3cc(F)ccc23)C(c2c(F)cc(OCCNCC=CC(=O)N(C)C)cc2F)N1CC(C)(C)F` (centres unmarked) [Compound 2-115]: the “Binding Potential (Percent inhibition)” value is recorded as “++++ (++++ >90%)”.

Regarding `CC1Cc2c([nH]c3cc(F)ccc23)C(c2c(F)cc(OCCNCC=CC(=O)N(C)C)cc2F)N1CC(C)(F)CO` (centres unmarked) [Compound 2-118], the “Binding Potential (Percent inhibition)” value was “++++ (++++ >90%)”.

Take `C#CCCCNC(=O)C=CCNCCOc1cc(F)c(C2c3[nH]c4ccccc4c3CC(C)N2CC(C)(C)F)c(F)c1` (centres unmarked) [Compound 2-300]: the “Binding Potential (Percent inhibition)” value was “+++ (+++ 80-90%)”.

In the case of `CC1Cc2c([nH]c3ccccc23)C(c2c(F)cc(N)cc2F)N1CC(C)(C)F` (centres unmarked) [Compound 2-301], the “Binding Potential (Percent inhibition)” value was “+++ (+++ 80-90%)”.

For the molecule `CC1Cc2c([nH]c3ccccc23)C(c2ccc(C=CCNCC=CC(=O)N(C)C)nc2)N1CC(C)(C)F` (centres unmarked) [Compound 2-302], the “Binding Potential (Percent inhibition)” value is listed as “++ (++ 50-70%)”.

Take `CC1Cc2c([nH]c3ccccc23)C(c2c(F)cc(C=CCNCC=CC(=O)N(C)C)cc2F)N1CC(C)(C)F` (centres unmarked) [Compound 2-303]: the “Binding Potential (Percent inhibition)” value was “++ (++ 50-70%)”.

Turning to `CC1Cc2c([nH]c3ccccc23)C(c2c(F)cc(C=CCNCC=CC(=O)N(C)C)nc2F)N1CC(C)(C)F` (centres unmarked) [Compound 2-304], the “Binding Potential (Percent inhibition)” value is listed as “++++ (++++ >90%)”.

Turning to `C=CC(=O)NCCc1ccc(C2c3[nH]c4ccccc4c3CC(C)N2CC(C)(C)F)cn1` (centres unmarked) [Compound 2-305], the “Binding Potential (Percent inhibition)” value is on record as “++++ (++++ >90%)”.

As to `C=CC(=O)NCCc1cc(F)c(C2c3[nH]c4ccccc4c3CC(C)N2CC(C)(C)F)c(F)n1` (centres unmarked) [Compound 2-306], the “Binding Potential (Percent inhibition)” value was “++++ (++++ >90%)”.

As for `C=CC(=O)NCCc1cc(F)c(C2c3[nH]c4ccccc4c3CC(C)N2CC(C)(C)F)c(F)c1` (centres unmarked) [Compound 2-307], the “Binding Potential (Percent inhibition)” value is on record as “++++ (++++ >90%)”.

For `CC#CC(=O)NCCc1ccc(C2c3[nH]c4ccccc4c3CC(C)N2CC(C)(C)F)cn1` (centres unmarked) [Compound 2-308], the “Binding Potential (Percent inhibition)” value was “++++ (++++ >90%)”.

As for `CC#CC(=O)NCCc1cc(F)c(C2c3[nH]c4ccccc4c3CC(C)N2CC(C)(C)F)c(F)n1` (centres unmarked) [Compound 2-309], the “Binding Potential (Percent inhibition)” value is “++++ (++++ >90%)”.

With `CC#CC(=O)NCCc1cc(F)c(C2c3[nH]c4ccccc4c3CC(C)N2CC(C)(C)F)c(F)c1` (centres unmarked) [Compound 2-310], the “Binding Potential (Percent inhibition)” value is “++++ (++++ >90%)”.

`C#CCN(C)C(=O)C=CCNCCOc1cc(F)c(C2c3[nH]c4ccccc4c3CC(C)N2CC(C)(C)F)c(F)c1` (centres unmarked) [Compound 2-311]: the “Binding Potential (Percent inhibition)” value is reported as “++++ (++++ >90%)”.

On to `CC1Cc2c([nH]c3ccccc23)C(c2ccc(N)cc2)N1CC(C)(C)F` (centres unmarked) [Compound 2-312], for which the “Binding Potential (Percent inhibition)” value is “++++ (++++ >90%)”.

As to `CC1Cc2c([nH]c3ccccc23)C(c2ccc(N)nc2)N1CC(C)(C)F` (centres unmarked) [Compound 2-314], the “Binding Potential (Percent inhibition)” value was “+ (+ <20%)”.

`CC1Cc2c([nH]c3ccccc23)C(c2ccc(OCCNCC=CC(=O)N(C)C)nc2)N1CC(C)(C)F` (centres unmarked) [Compound 2-315]: the “Binding Potential (Percent inhibition)” value is recorded as “++++ (++++ >90%)”.

Take `C=CC(=O)NCCOc1ccc(C2c3[nH]c4ccccc4c3CC(C)N2CC(C)(C)F)cn1` (centres unmarked) [Compound 2-316]: the “Binding Potential (Percent inhibition)” value is on record as “++++ (++++ >90%)”.

Staying with this experiment, now noted: HEK293 cells transfected with NanoLuc-target fusion, overnight incubation, washout.
With `CC1Cc2c([nH]c3ccccc23)C(c2ccc(N)nc2)N1CC(C)(C)F` (centres unmarked) [Compound 2-314], the “activity of an estrogen receptor is inhibited” value is below 20% and the “formed a covalent bond with an estrogen receptor” value is below 20%.
